From patent US20080166753A1, “Microbial Growth Assay” (University Technologies International Inc., priority 2004, published 2008)
Entries after “also recorded” stand apart in the source; their conditions may differ.

Key:
[1] = system: P. aeruginosa mutant strain 4G6 biofilm; test: Biofilm killing assessed by XTT absorbance, mutant strain 4G6; type: cell-based; conditions: strain 4G6 (contains gentamicin cassette), 48 h biofilm
Protocol: (§1) Biofilm Growth Conditions. Isolates were propagated in Mueller-Hinton broth (MHB). Flasks containing liquid medium (20 ml) were inoculated with a loopful of cells from MHB agar plates containing freshly grown isolates, and incubated overnight in an orbital shaker (100 rpm) at 37° C. Cells were harvested and resuspended in MHB at a cellular density equivalent to 1.0×10^6 cells per milliliter. Biofilms were formed on the pegs of the Calgary Biofilm Device (CBD; MBE™ Biofilm Technologies, Ltd., Edmonton AB), described in Ceri et al. (Ceri et al., J. Clin. Microbiol., 37(6):1771-6, 1999). The device consists of 96 conical pegs attached to a plastic lid. […]
(§2) Optimizing XTT Assay. In order to optimize the quantities of 2,3-bis[2-methyloxy-4-nitro-5-sulfophenyl]-2H-tetrazolium-5-carboxanilide (XTT; Sigma) and menadione required for quantifying biofilm metabolic activity, varying concentrations were tested. […] The concentration of menadione (2-methyl-1,4-naphthoquinone; Sigma), the electron-coupling agent, was varied to establish the optimal molarity in respect to maximal absorbance readings. […] The change in XTT absorbance at 490 nm was assessed spectrophotometerically using an automated microtiter plate reader. It was determined that 75 μM gave the optimal change in absorbance after 2 h (FIG. 7). […]
(§3) Assessment of Biofilm Killing Kinetics Using XTT. […] XTT absorbance readings were taken at 2 h and then at 24 h. […]

[2] = system: P. aeruginosa mutant strain TTD2 biofilm; test: Biofilm killing assessed by XTT absorbance, mutant strain TTD2; type: cell-based; conditions: strain TTD2 (contains gentamicin cassette), 48 h biofilm
Protocol: as §1, §2, §3

In the case of gentamicin, the “Susceptibility as assessed by XTT absorbance” value [1] is reported as “less susceptible; also recorded: decreased susceptibility” and the “Susceptibility as assessed by XTT absorbance” value [2] is reported as “less susceptible; also recorded: decreased susceptibility”.
